The target in one test is T1, MAT2A homodimer (Homo sapiens, UniProt P31153).
T1 construct: inferred from Ni sepharose purification and imidazole elution; made in house; host or cells: SF9 insect cells, recombinant baculovirus (Bac to Bac, pFASTBAC1)
As to the kind of experiment: MAT2A biochemical assay (phosphate release, PiColorLock Gold). To be noted: recombinant MAT2A homodimer, 60 min pre-incubation, 25° C.; read-out: Enzyme Inhibition. Summed up: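 Baculovirus/Sf9-expressed, Ni-purified MAT2A homodimer (4 µg/mL in pH 8.0 Tris/KCl/MgCl2 buffer) preincubated 60 min at 25 °C with compound (2% DMSO final). Substrate mix of 500 µM ATP and 400 µM L-methionine added; 60 min at 25 °C; released phosphate quantified colorimetrically against a phosphate standard curve.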

The test system of test [1] is MAT2A activity (SAM) in HCT116 cells with deleted MTAP gene. The experiment in a line: Cellular assay of target engagement (SAM) by LC-MS/MS. To be noted: Homo sapiens, HCT-116; HCT116 MTAP −/−, 72 hrs; read-out: Cell 72 h SAM Inhibition (MTAP −/−). It is filed as cell-based. Summed up: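 HCT116 MTAP-deleted cells treated with 10-point 3-fold DMSO serial dilutions of compound for 72 hrs at 37° C. Cells lysed in cold 80% methanol/acetic acid extraction buffer with d3-SAM internal standard; SAM quantified by LC-MS/MS (MRM m/z 399.2→250.1).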

For a further test, the system named is HCT116 MTAP−/−. The experiment in a line: Inhibition of cellular proliferation (Cell Titer Glo), HCT116 MTAP-/-. The conditions noted are these: Homo sapiens, HCT-116, 96 h, 4 days, read-out: 4 Day Relative Growth Inhibition (MTAP −/−). Type of test: cell-based. Summed up: (§1)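 Isogenic HCT116 MTAP+/+ and MTAP−/− cells treated 24 h after plating with 10-point 3-fold dilutions, then grown 4 days at 37 °C/5% CO2. ATP content read by Cell Titer Glo luminescence, blank-subtracted and normalized to 0.2% DMSO control, plotted as percent proliferation change versus log molar concentration.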

A further test has as its system HCT116 MTAP+/+. As to the kind of experiment: Inhibition of cellular proliferation (Cell Titer Glo), HCT116 MTAP+/+. It is filed as cell-based. The conditions noted are these: Homo sapiens, HCT-116, 96 h, 4 days, read-out: 4 Day Relative Growth Inhibition (MTAP +/+). Summed up: as §1
In general terms: ATP-based viability assays read luminescence as a measure of living cells.

The results in this text go back to patent publication US12077534B2, “Aza-heterobicyclic inhibitors of MAT2A and methods of use for treating cancer” (Les Laboratoires Servier SAS, priority 2018, dated 2024).

T1 sequence (P31153 whole entry): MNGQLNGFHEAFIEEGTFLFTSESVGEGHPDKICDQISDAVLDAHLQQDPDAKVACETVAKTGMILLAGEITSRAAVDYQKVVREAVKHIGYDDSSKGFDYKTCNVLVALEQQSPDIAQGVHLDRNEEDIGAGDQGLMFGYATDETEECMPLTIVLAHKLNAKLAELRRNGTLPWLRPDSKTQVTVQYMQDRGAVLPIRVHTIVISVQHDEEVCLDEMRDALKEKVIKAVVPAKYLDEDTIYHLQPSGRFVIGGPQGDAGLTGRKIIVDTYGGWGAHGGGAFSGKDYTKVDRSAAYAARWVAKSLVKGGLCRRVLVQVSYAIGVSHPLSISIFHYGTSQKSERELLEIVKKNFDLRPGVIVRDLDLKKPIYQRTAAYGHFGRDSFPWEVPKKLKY

With `Cn1nc2ccc(-n3nc4ccc(OCC(F)F)nc4c(-c4ccc(OC(F)F)cc4)c3=O)cc2n1` [Example 182], the IC50 on MAT2A homodimer was below 100 nM; in test [1], below 100 nM; in the test on HCT116 MTAP−/−, below 100 nM; in the test with HCT116 MTAP+/+, 100 to 1000 nM.

As to `Cn1cc2cc(-n3nc4ccc(OCC(F)F)nc4c(C4CCCCC4)c3=O)ccc2n1` [Example 206, 4-cyclohexyl-6-(2,2-difluoroethoxy)-2-(2-methyl-2H-indazol-5-yl)pyrido[3,2-c]pyridazin-3(2H)-one], the IC50 at MAT2A homodimer was below 100 nM; in test [1] it was 100 to 1000 nM; with HCT116 MTAP−/−, 100 to 1000 nM; in the test on HCT116 MTAP+/+, at least 1000 nM.

`CCNc1ccc2nn(-c3ccc4nn(C)cc4c3)c(=O)c(-c3ccc(OC(F)F)cc3)c2n1` [Example 159]: the IC50 was below 100 nM on MAT2A homodimer, below 100 nM in test [1], below 100 nM with HCT116 MTAP−/− and at least 1000 nM with HCT116 MTAP+/+.

`Cn1cc2cc(-n3nc4ccc(OCC(F)F)nc4c(C#Cc4cc[nH]n4)c3=O)ccc2n1` [Example 215, 4-((1H-pyrazol-3-yl)ethynyl)-6-(2,2-difluoroethoxy)-2-(2-methyl-2H-indazol-5-yl)pyrido[3,2-c]pyridazin-3(2H)-one]: the IC50 on MAT2A homodimer was below 100 nM; in test [1], above 1000 nM; with HCT116 MTAP−/−, 100 to 1000 nM; in the test with HCT116 MTAP+/+ it was at least 1000 nM.

Consider `CCOc1ccc2nn(-c3ccc(OC)cc3)c(=O)c(-c3ccc(OC(F)F)cc3)c2n1` [Example 135], for which the IC50 is below 100 nM on MAT2A homodimer, below 100 nM in test [1], 100 to 1000 nM with HCT116 MTAP−/− and at least 1000 nM in the test on HCT116 MTAP+/+.

Consider `COc1ccc(-c2c(=O)n(-c3ccc4nn(C)cc4c3)nc3ccc(OCC(F)F)nc23)cn1` [Example 130], for which the IC50 on MAT2A homodimer is below 100 nM; in test [1] it was below 100 nM; in the test with HCT116 MTAP−/−, below 100 nM; in the test with HCT116 MTAP+/+, 100 to 1000 nM.

Regarding `Cn1cnc2ccc(-n3nc4ccc(OCC(F)F)nc4c(-c4ccc(OC(F)F)cc4)c3=O)cc21` [Example 167, 6-(2,2-difluoroethoxy)-4-(4-(difluoromethoxy)phenyl)-2-(1-methyl-1H-benzo[d]imidazol-6-yl)pyrido[3,2-c]pyridazin-3(2H)-one], the IC50 at MAT2A homodimer was below 100 nM; in test [1], below 100 nM; in the test on HCT116 MTAP−/− it was below 100 nM; in the test with HCT116 MTAP+/+ it was at least 1000 nM.

Take `Cn1cc2cc(-n3nc4ccc(OCC5CCC5)nc4c(-c4ccc(OC(F)F)cc4)c3=O)ccc2n1` [Example 131]: the IC50 was below 100 nM on MAT2A homodimer, 100 to 1000 nM in test [1], at least 1000 nM with HCT116 MTAP−/− and at least 1000 nM in the test on HCT116 MTAP+/+.

Regarding `Cn1cc2cc(-n3nc4ccc(NC5CC5)nc4c(-c4ccc(Cl)cc4)c3=O)ccc2n1` [Example 155], the IC50 at MAT2A homodimer is below 100 nM; in test [1], below 100 nM; in the test on HCT116 MTAP−/−, below 100 nM; in the test with HCT116 MTAP+/+, at least 1000 nM.

Consider `Cn1cc2cc(-n3nc4ccc(OCC(F)F)nc4c(-c4ccc(C5CC5)cc4)c3=O)ccc2n1` [Example 114], for which the IC50 on MAT2A homodimer is below 100 nM; in test [1], below 100 nM; with HCT116 MTAP−/−, below 100 nM; with HCT116 MTAP+/+, at least 1000 nM.

`CCOc1ccc2nn(-c3ccc4ncsc4c3)c(=O)c(-c3ccc(OC(F)F)cc3)c2n1` [Example 145]: the IC50 on MAT2A homodimer is below 100 nM; in test [1], below 100 nM; in the test with HCT116 MTAP−/−, below 100 nM; in the test with HCT116 MTAP+/+, at least 1000 nM.

Turning to `CC(C)Oc1ccc2nn(-c3ccc4ncsc4c3)c(=O)c(-c3ccc(Br)cc3)c2n1` [Example 202, 2-(benzo[d]thiazol-6-yl)-4-(4-bromophenyl)-6-isopropoxypyrido[3,2-c]pyridazin-3(2H)-one], the IC50 is below 100 nM at MAT2A homodimer, below 100 nM in test [1], below 100 nM with HCT116 MTAP−/− and at least 1000 nM in the test with HCT116 MTAP+/+.

Turning to `Cn1cc2cc(-n3nc4ccc(OC5CC5)nc4c(-c4ccc(Cl)cc4)c3=O)ccc2n1` [Example 113], the IC50 at MAT2A homodimer was below 100 nM; in test [1] it was below 100 nM; in the test with HCT116 MTAP−/−, 100 to 1000 nM; with HCT116 MTAP+/+, at least 1000 nM.

Consider `CC(C)Oc1ccc2nn(-c3ccc4nn(C)cc4c3)c(=O)c(-c3ccc(OC(F)F)cc3)c2n1` [Example 138], for which the IC50 at MAT2A homodimer is below 100 nM; in test [1], below 100 nM; in the test on HCT116 MTAP−/−, below 100 nM; in the test with HCT116 MTAP+/+ it was at least 1000 nM.

As to `[2H]C([2H])([2H])Oc1ccc(-c2c(=O)n(-c3ccc4nn(C)cc4c3)nc3ccc(OCC(F)F)nc23)cc1` [Example 108], the IC50 is below 100 nM on MAT2A homodimer, below 100 nM in test [1], below 100 nM in the test on HCT116 MTAP−/− and at least 1000 nM in the test with HCT116 MTAP+/+.

Turning to `O=c1c(-c2ccc(OC(F)F)cc2)c2nc(OCC(F)F)ccc2nn1-c1cn[nH]c1` [Example 193], the IC50 on MAT2A homodimer is below 100 nM; in test [1], 100 to 1000 nM; with HCT116 MTAP−/−, 100 to 1000 nM; in the test with HCT116 MTAP+/+, at least 1000 nM.

As to `Cn1cc2cc(-n3nc4ccc(OCC(F)F)nc4c(C4=CCC(O)CC4)c3=O)ccc2n1` (centres unmarked) [Example 149], the IC50 on MAT2A homodimer was below 100 nM; in test [1], below 100 nM; with HCT116 MTAP−/−, 100 to 1000 nM; with HCT116 MTAP+/+, at least 1000 nM.

With `CN(C)c1c2cc(-n3nc4ccc(OCC(F)F)nc4c(-c4ccc(OC(F)F)cc4)c3=O)ccc2nn1C` [Example 203, 6-(2,2-difluoroethoxy)-4-(4-(difluoromethoxy)phenyl)-2-(3-(dimethylamino)-2-methyl-2H-indazol-5-yl)pyrido[3,2-c]pyridazin-3(2H)-one], the IC50 is below 100 nM on MAT2A homodimer, below 100 nM in test [1], below 100 nM in the test with HCT116 MTAP−/− and 100 to 1000 nM in the test on HCT116 MTAP+/+.

With `Cn1cc2cc(-n3nc4ccc(OCC(F)F)nc4c(-c4ccncc4)c3=O)ccc2n1` [Example 134], the IC50 on MAT2A homodimer was below 100 nM; in test [1], 100 to 1000 nM; in the test on HCT116 MTAP−/−, at least 1000 nM; with HCT116 MTAP+/+, at least 1000 nM.

On to `Cn1cc2cc(-n3nc4ccc(OCC(F)F)nc4c(-c4ccccc4)c3=O)ccc2n1` [Example 133], for which the IC50 at MAT2A homodimer was below 100 nM; in test [1] it was below 100 nM; in the test on HCT116 MTAP−/−, 100 to 1000 nM; in the test with HCT116 MTAP+/+, at least 1000 nM.

In the case of `COc1ccc(-c2c(=O)n(-c3ccc4ncsc4c3)nc3ccc(OCC(F)F)nc23)cc1` [Example 144], the IC50 at MAT2A homodimer is below 100 nM; in test [1] it was below 100 nM; in the test on HCT116 MTAP−/−, below 100 nM; in the test on HCT116 MTAP+/+ it was at least 1000 nM.

Regarding `Cn1cc2cc(-n3nc4c(C(F)F)cc(OCC(F)F)nc4c(-c4ccc(OC(F)F)cc4)c3=O)ccc2n1` [Example 210, 6-(2,2-difluoroethoxy)-4-(4-(difluoromethoxy)phenyl)-8-(difluoromethyl)-2-(2-methyl-2H-indazol-5-yl)pyrido[3,2-c]pyridazin-3(2H)-one], the IC50 was below 100 nM on MAT2A homodimer, below 100 nM in test [1], 100 to 1000 nM in the test on HCT116 MTAP−/− and at least 1000 nM with HCT116 MTAP+/+.

Take `CCNc1nc2c(-c3ccc(OC(F)F)cc3)c(=O)n(-c3ccc4nn(C)cc4c3)nc2cc1F` [Example 196]: the IC50 on MAT2A homodimer was below 100 nM; in test [1] it was below 100 nM; in the test on HCT116 MTAP−/−, below 100 nM; with HCT116 MTAP+/+, at least 1000 nM.
